The test system of assay [1] is thyroid nodule localized to the right side of the thyroid gland. As to the kind of experiment: Case 2: subject with thyroid nodule given the preferred embodiment. The following applies: increasing doses, before the preferred embodiment. Format: in vivo.
From the text: […]

Assay [2] has as its system atrophic or neovascular AMD. The following applies: group with the highest dietary intake of either carotenoid; cited from earlier work.
In another assay the test system is bFGF. The following applies: mice with the highest survival rates; cited from earlier work.
In a further assay the test system is sarcoma S-180 cells. The following applies: high dose; cited from earlier work.
The subject of another assay is VEGF. The settings on record: mice with the highest survival rates; cited from earlier work.
The next assay has as its system MMP2. The settings on record: mice with the highest survival rates; cited from earlier work.

With `N[C@@H](Cc1cc(I)c(Oc2cc(I)c(O)c(I)c2)c(I)c1)C(=O)O` [levothyroxine sodium], in assay [1], the “effect on growth of the thyroid nodule” value was “did not seem to inhibit the growth of the nodule”. On to `CC1=C[C@H](O)CC(C)(C)[C@H]1/C=C/C(C)=C/C=C/C(C)=C/C=C/C=C(C)/C=C/C=C(C)/C=C/C1=C(C)C[C@@H](O)CC1(C)C` [lutein], for which the “reduction in the risk of developing atrophic or neovascular AMD” value in assay [2] is on record as “forty”. Consider `O=C1O[C@H]([C@@H](O)CO)C(O)=C1O` [vitamin C, ascorbic acid], for which the “inhibition of expression of bFGF gene” value in the assay on bFGF is on record as 0.3 times. Moreover, the “increase of survival rate as compared to control models” value in the assay on sarcoma S-180 cells is given as 20%. For the same molecule, the “inhibition of expression of VEGF gene” value in the assay with VEGF was 7 times. The “inhibition of expression of MMP2 gene” value in the assay with MMP2 is listed as 4 times. For `CC1=C(/C=C/C(C)=C/C=C/C(C)=C/C=C/C=C(C)/C=C/C=C(C)/C=C/C2=C(C)C[C@@H](O)CC2(C)C)C(C)(C)C[C@H](O)C1` [zeaxanthin], the “reduction in the risk of developing atrophic or neovascular AMD” value in assay [2] is “forty”.

(Values after patent US8652518B2, “Compositions and methods for the prevention and treatment of diseases or conditions associated with oxidative stress, inflammation, and metabolic dysregulation” (priority 2012, dated 2014).)
